Measurements from US20220264878A1, “HERBICIDAL COMPOSITION CONTAINING R-TYPE PYRIDYLOXY CARBOXYLIC ACID DERIVATIVE AND USE THEREOF” (Qingdao Kingagroot Chemical Compound Co., Ltd., priority 2019, published 2022).

What was measured:
Assay in all cases: Post-emergence foliage spray, pot culture, fresh weight inhibition (Tables 1-48, 51-98, 101-148; 24 days)
Format in all cases: in vivo
[1] = system: Alopecurus japonicus
Excerpt: (§1) Table 1-48, 51-98, 101-148: Echinochloa crusgalli var. zelayensis, Eclipta prostrate, Galium aparine L., Alopecurus aequalis, Alopecurus japonicus, Lindernia procumbens, Veronica persica^1, Malachium aquaticum, Beckmannia syzigachne, Stellaria media were collected in Huai'an of Jiangsu Province; Commelina communis, Sonchus arvensis, Setaria glauca, Chloris virgata, Setaria faberi, Sonchus oleraceus L., Echinochloa oryzoides, Cirsium setosum, Xanthium strumarium were collected in Qiqiha'er of Heilongjiang Province; Sinapis arvensis, Veronica persica^2 were collected in Zhumadian of Henan Province; Ludwigia prostrate, Ammannia arenaria were collected in Zhuji of Zhejiang Province; Amaranthus retrojlexus, Descurainia sophia, Digitaria sanguinalis, Setaria viridis, Conyza Canadensis, Capsella bursa-pastoris, Eleusine indica, Ipomoea purpurea, Abutilon theophrasti, Chenopodium album, Acalypha australis, Solanum nigrum were collected in Qingdao of Shandong Province; Echinochloa caudate were collected in Pingluo of Ningxia Province.
(§2) The above weeds were cultivated by a pot culture method. […] Full and uniform weed seeds were selected, soaked in warm water at 25° C. for 6 hours, and germinated in a 28° C. biochemical incubator (darkness). The weed seeds that had just germinatedwere evenly placed on the surface of the soil and then covered with 0.5-1 cm soil according to the sizes of seeds.
(§3) The culture was carried out in a controllable sunlight greenhouse at 20 to 30° C., in natural light, and relative humidity of 57% to 72%.
(§4) The technical materials were all dissolved in acetone, and diluted with an aqueous solution containing 0.1% emulsifier Tween-80. The dilution is performed as required.
(§5) A ratio of the active ingredient A to the active ingredient B and amounts thereof in each group depends on the characteristics and toxicity of the two agents, as well as the main application purpose of a corresponding formulation. Based on the pre-tests in this study, the dosage of the active ingredient A and B applied alone and in combination were shown in the tables. Water containing the solvent and emulsifier same with the above groups but free of the agents was used as a blank control.
(§6) Table 1-48, 51-98, 101-148, 151-206: […] per treatment, that is, a total of 60 weeds were treated in one treatment.
(§7) Table 1-48, 51-98, 101-148: The agents were used for only once in the experiment. In the stage of weeds with 3˜4 leaves, the weeds were thinned out to maintain 15 weeds per pot and 45 weeds for each treatment, then continued to be cultured to 5˜6 leaves stage of grassy weeds, 6˜7 leaves stage of broadleaf weeds, and treated.
(§8) The well-cultured weeds were evenly placed on a platform with an area of 0.5 m^2, and a solution of agents was sprayed on the stems and leaves thereof by the 3WP-2000-type walking spray tower at a dosage of 450 kg/ha and at a spray pressure of 0.3 MPa. After all the solution was sprayed, the valve was closed. After 30 seconds, the door of the spray tower was opened, and the nutritional bowl was taken out. Then the valve was opened, and the spray tube was cleaned by spraying 50 ml of water.
(§9) A pot-culture method was employed. For the cultivation of weeds, please refer to the Section 1.1), and “Pesticide guidelines for laboratory bioactivity tests—herbicides”. As to a method for applying agents, please refer to the section 2.3.2), that is, a foliage treatment was employed. After the treatment, the weeds were routinely cultured in a greenhouse.
(§10) A method for investigating absolute number was employed, wherein whole seedlings of survival weeds were cut off with a blade along the soil surface, and the fresh weight of the weeds was weighed with an analytical balance. For dead weeds, the fresh weight thereof was zero.
(§11) Table 1-48, 51-98, 101-148, 207-216: The investigation was performed after 24 days of the treatment for only once.

[2] = system: Beckmannia syzigachne
Excerpt: as §1, §2, §3, §4, §5, §6, §7, §8, §9, §10, §11

[3] = system: Chenopodium album
How it was run: (§12)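 Pot-grown weeds were thinned to 15 per pot (45 per treatment) and sprayed on foliage at the 5–6-leaf stage for grasses or the 6–7-leaf stage for broadleaves. Agents were dissolved in acetone with 0.1% Tween-80 and applied at 450 kg/ha spray volume and 0.3 MPa. Plants were then kept in a greenhouse. Above-ground fresh weight of survivors, with dead plants counted as zero, gave inhibition versus a solvent/emulsifier blank.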

[4] = system: Acalypha australis
Excerpt: as §1, §2, §3, §4, §5, §6, §7, §8, §9, §10, §11

[5] = system: Echinochloa oryzoides; details: Echinochloa oryzoides, 576 h, Table 107, read-out: Control effect (%) of B applied alone in corresponding dose
How it was run: as §12

[6] = system: Echinochloa crusgalli var. zelayensis; details: Echinochloa crus-galli, foliar, 576 h, foliage spray, 24 days, read-out: Control effect (%) of B applied alone in corresponding dose
How it was run: as §12

[7] = system: Echinochloa caudate; details: Echinochloa, 576 h, read-out: Control effect (%) of B applied alone in corresponding dose
How it was run: as §12

Cn1[nH]c(C2CC2)c(C(=O)c2ccc(C(F)(F)F)c(N3CCCCC3=O)c2Cl)c1=O [cypyrafluone]
Control effect (%) of B applied alone in corresponding dose ([1]; cypyrafluone 18.75 g a.i./ha): 4.0%
Control effect (%) of B applied alone in corresponding dose ([1]; cypyrafluone 37.5 g a.i./ha): 24.9%
Control effect (%) of B applied alone in corresponding dose ([1]; cypyrafluone 75 g a.i./ha): 54.8%
Control effect (%) of B applied alone in corresponding dose ([1]; cypyrafluone 150 g a.i./ha): 81.3%
Control effect (%) of B applied alone in corresponding dose ([2]; B 18.75 g a.i./ha): 9.0%
Control effect (%) of B applied alone in corresponding dose ([2]; B 37.5 g a.i./ha): 14.2%
Control effect (%) of B applied alone in corresponding dose ([2]; B 75 g a.i./ha): 56.3%
Control effect (%) of B applied alone in corresponding dose ([2]; B 150 g a.i./ha): 81.8%

O=C(O)COC(=O)c1cc(Oc2ccc(C(F)(F)F)cc2Cl)ccc1[N+](=O)[O-] [fluoroglycofen]
Control effect (%) of B applied alone in corresponding dose ([3]; Table 92, 0.9375 g a.i./ha): 2.3%
Control effect (%) of B applied alone in corresponding dose ([3]; Table 92, 1.875 g a.i./ha): 12.8%
Control effect (%) of B applied alone in corresponding dose ([3]; Table 92, 3.75 g a.i./ha): 40.0%
Control effect (%) of B applied alone in corresponding dose ([3]; Table 92, 7.5 g a.i./ha): 70.6%
Control effect (%) of B applied alone in corresponding dose ([4]; B 0.9375 g a.i./ha): 4.0%
Control effect (%) of B applied alone in corresponding dose ([4]; B 1.875 g a.i./ha): 15.7%
Control effect (%) of B applied alone in corresponding dose ([4]; B 3.75 g a.i./ha): 41.6%
Control effect (%) of B applied alone in corresponding dose ([4]; B 7.5 g a.i./ha): 71.4%

CCOc1cc(Oc2ccc(C(F)(F)F)cc2Cl)ccc1[N+](=O)[O-] [oxyfluorfen]
Control effect (%) of B applied alone in corresponding dose ([3]; Table 93, 7.5 g a.i./ha): 3.6%
Control effect (%) of B applied alone in corresponding dose ([3]; Table 93, 15 g a.i./ha): 11.9%
Control effect (%) of B applied alone in corresponding dose ([3]; Table 93, 30 g a.i./ha): 30.7%
Control effect (%) of B applied alone in corresponding dose ([3]; Table 93, 60 g a.i./ha): 68.1%
Control effect (%) of B applied alone in corresponding dose ([4]; B 7.5 g a.i./ha): 4.6%
Control effect (%) of B applied alone in corresponding dose ([4]; B 15 g a.i./ha): 12.4%
Control effect (%) of B applied alone in corresponding dose ([4]; B 30 g a.i./ha): 32.7%
Control effect (%) of B applied alone in corresponding dose ([4]; B 60 g a.i./ha): 68.9%

CCOC(=O)C(C)OC(=O)c1cc(Oc2ccc(C(F)(F)F)cc2Cl)ccc1[N+](=O)[O-] (stereo not drawn) [lactofen]
Control effect (%) of B applied alone in corresponding dose ([3]; Table 94, 7.5 g a.i./ha): 3.3%
Control effect (%) of B applied alone in corresponding dose ([3]; Table 94, 15 g a.i./ha): 10.4%
Control effect (%) of B applied alone in corresponding dose ([3]; Table 94, 30 g a.i./ha): 39.7%
Control effect (%) of B applied alone in corresponding dose ([3]; Table 94, 60 g a.i./ha): 65.4%
Control effect (%) of B applied alone in corresponding dose ([4]; B 7.5 g a.i./ha): 2.7%
Control effect (%) of B applied alone in corresponding dose ([4]; B 15 g a.i./ha): 13.5%
Control effect (%) of B applied alone in corresponding dose ([4]; B 30 g a.i./ha): 41.4%
Control effect (%) of B applied alone in corresponding dose ([4]; B 60 g a.i./ha): 66.4%

N#Cc1cc(Br)c(O)c(Br)c1 [bromoxynil]
Control effect (%) of B applied alone in corresponding dose ([3]; bromoxynil 18.75 g a.i./ha): 3.1%
Control effect (%) of B applied alone in corresponding dose ([3]; bromoxynil 37.5 g a.i./ha): 10.8%
Control effect (%) of B applied alone in corresponding dose ([3]; bromoxynil 75 g a.i./ha): 57.7%
Control effect (%) of B applied alone in corresponding dose ([3]; bromoxynil 150 g a.i./ha): 83.6%
Control effect (%) of B applied alone in corresponding dose ([4]; B 18.75 g a.i./ha): 4.6%
Control effect (%) of B applied alone in corresponding dose ([4]; B 37.5 g a.i./ha): 10.6%
Control effect (%) of B applied alone in corresponding dose ([4]; B 75 g a.i./ha): 58.9%
Control effect (%) of B applied alone in corresponding dose ([4]; B 150 g a.i./ha): 84.0%

CS(=O)(=O)NC(=O)c1cc(Oc2ccc(C(F)(F)F)cc2Cl)ccc1[N+](=O)[O-] [fomesafen]
Control effect (%) of B applied alone in corresponding dose ([3]; Table 91, 22.5 g a.i./ha): 2.7%
Control effect (%) of B applied alone in corresponding dose ([3]; Table 91, 45 g a.i./ha): 18.6%
Control effect (%) of B applied alone in corresponding dose ([3]; Table 91, 90 g a.i./ha): 45.4%
Control effect (%) of B applied alone in corresponding dose ([3]; Table 91, 180 g a.i./ha): 81.9%
Control effect (%) of B applied alone in corresponding dose ([4]; B 22.5 g a.i./ha): 6.4%
Control effect (%) of B applied alone in corresponding dose ([4]; B 45 g a.i./ha): 12.6%
Control effect (%) of B applied alone in corresponding dose ([4]; B 90 g a.i./ha): 46.9%
Control effect (%) of B applied alone in corresponding dose ([4]; B 180 g a.i./ha): 82.4%

CCc1cnc(C2=NC(C)(C(C)C)C(=O)N2)c(C(=O)O)c1 (stereo not drawn) [imazethapyr]
pest or weed control at 7.5 g/ha ([5]; 7.5 g a.i./ha): 6.7%
pest or weed control at 15 g/ha ([5]; 15 g a.i./ha): 17.8%
pest or weed control at 30 g/ha ([5]; 30 g a.i./ha): 34.6%
pest or weed control at 60 g/ha ([5]; 60 g a.i./ha): 58.2%
pest or weed control at 7.5 g/ha ([6]; B 7.5 g a.i./ha): 3.2%
pest or weed control at 15 g/ha ([6]; B 15 g a.i./ha): 19.8%
pest or weed control at 30 g/ha ([6]; B 30 g a.i./ha): 31.2%
pest or weed control at 60 g/ha ([6]; B 60 g a.i./ha): 59.2%
pest or weed control at 7.5 g/ha ([7]; imazethapyr 7.5 g a.i./ha): 4.2%
pest or weed control at 15 g/ha ([7]; imazethapyr 15 g a.i./ha): 18.1%
pest or weed control at 30 g/ha ([7]; imazethapyr 30 g a.i./ha): 34.8%
pest or weed control at 60 g/ha ([7]; imazethapyr 60 g a.i./ha): 55.6%
